Measured values: PMC6572996, “Silver(I) Complexes of the Pharmaceutical Agents Metronidazole and 4-Hydroxymethylpyridine: Comparison of Cytotoxic Profile for Potential Clinical Application” (Molecules, 2019)
Like-named read-outs stand apart in the source and are kept apart here.

Columns and labels:
FaO cells = test system: FaO cells; set-up: method as in doi:10.2478/v10213-012-0102-5; conditions: cited from earlier work
MCF7 cells = test system: MCF7 cells; set-up: method as in PMID 22832309; conditions: 48 h incubation, cited from earlier work
[1] = Cytotoxicity over four assays in both cell lines; format: cell-based; conditions: mouse (Balb/c 3T3) and human (HepG2), Balb/c 3T3 clone A31 fibroblasts and HepG2 hepatoma cells, mostly greater than 50%, read-out: Viability of the cells at the highest concentrations used
Procedure: Data obtained from the measurement of the optical density in these assays were transformed to percentages in relation to the control group, considered to be 100% for the MTT, NRU, and TPC assays and 0% for the LDH assay (Figure 1).
The human hepatoma cell line (HepG2) was purchased from the American Type Culture Collection (ATCC HB-8065). These cells were cultured in Minimum Essential Medium Eagle (MEME) (ATCC). The murine fibroblast cell line (Balb/c 3T3 clone A31) (gift from Department of Swine Diseases of the National Veterinary Research Institute in Pulawy) was cultured in Dulbecco’s Modified Eagle’s Medium (DMEM) (ATCC). The media were supplemented with 10% BCS (Balb/c 3T3), 10% FBS (HepG2), 1% L-glutamine, and 1% antibiotic solution. The cells were maintained in 75 cm^2 cell culture flasks (Nunc, Roskilde, Denmark) in a humidified incubator, NuAire (Plymouth, MN, USA) at 37 °C, in an atmosphere of 5% CO2. The medium was refreshed every two or three days and the cells were trypsinized by 0.25% trypsin–0.02% EDTA after reaching 70–80% confluence. […]
The concentration ranges of compounds were chosen according to their solubility and their plasma level. […] Cytotoxicity was assessed after 72 h of exposure of the cells to the compounds. […]
The results of the tests were expressed as a mean ± SD. […] The IC50 values were calculated by GraphPad Prism 5 software (San Diego, CA, USA). […]

IEC-6 cells = test system: IEC-6 cells; set-up: method as in PMID 20946968; conditions: 84.8 µM, 24 h exposure; cited from earlier work
10T1/2 cell line = test system: 10T1/2 cell line; set-up: method as in PMID 26828469; conditions: same observation as in this study; cited from earlier work
human fibroblasts (FMM1) = test system: human fibroblasts (FMM1); set-up: method as in PMID 20857004; conditions: 50 µg/mL, 72 h treatment; cited from earlier work
H-ras 5RP7 cells = conditions: 24 h exposure; cited from earlier work
[2] = test system: murine fibroblasts (L929); set-up: method as in PMID 18364400; conditions: 24 h exposure; read-out: IC50, L929, NRU assay; cited from earlier work
HeLa cell lines = test system: HeLa cell lines; set-up: method as in PMID 19836347; conditions: cited from earlier work
[3] = test system: OVCAR-3 (ovarian) cell line; set-up: method as in PMID 18615197; conditions: 72 h; cited from earlier work
MB157 (breast) cell line = test system: MB157 (breast) cell line; set-up: method as in PMID 18615197; conditions: 72 h; cited from earlier work
[4] = test system: murine fibroblasts (L929); set-up: method as in PMID 18364400; conditions: 24 h exposure; read-out: IC50, L929, MTT assay; cited from earlier work
NIH/3T3 cells = conditions: 24 h exposure; cited from earlier work
A549 (lung) cells = conditions: 72 h exposure; cited from earlier work

| Compound | Cytotoxicity in FaO cells (FaO cells) | Inhibition of MCF7 cells (MCF7 cells; 250 µM) | Cytotoxicity in MCF7 cells (MCF7 cells; concentration range 2.5 to 250 µM) | viability at 72 h [1] | Inhibition of viability of IEC-6 cells (IEC-6 cells) | Cytotoxicity in 10T1/2 cell line (10T1/2 cell line) | Decrease of viability of human fibroblasts (FMM1) (human fibroblasts (FMM1)) | IC50 (H-ras 5RP7 cells) | IC50 [2] | IC50 (HeLa cell lines) | IC50 [3] | IC50 (MB157 (breast) cell line) | IC50 [4] | IC50 (NIH/3T3 cells) | IC50 (A549 (lung) cells) |
| --- | --- | --- | --- | --- | --- | --- | --- | --- | --- | --- | --- | --- | --- | --- | --- |
| Cc1ncc([N+](=O)[O-])n1CCO [Metronidazole] | low cytotoxicity | 30% | not cytotoxic | > 50% | 8% | poorly cytotoxic | 40% |  |  |  |  |  |  |  |  |
| O=[N+]([O-])[O-].[Ag+] [Silver nitrate] |  |  |  |  |  |  |  | 6.75 µM | 2.55 µM | 2.89 µM | 35 µM | 5 µM | 3.57 µM | 12.3 µM | 13.5 µM |
